{
  "source": "patent US5541175A",
  "about": "“Cephalosporin antibiotics” (Lucky, Ltd., priority 1993, dated 1996)",
  "assay_in_all_cases": "Minimum inhibitory concentration (agar 2-fold dilution)",
  "assay_type_in_all_cases": "cell-based",
  "key": {"[1]": {"test_system": "Acinetobacter calcoaceticus 15473A", "conditions": "read-out: Minimum Inhibitory Concentration", "method": "(§1) The minimum inhibitory concentration was determined by diluting the test compounds according to 2-fold dilution, suspending them in Muller-Hinton agar medium, inoculating 2 μl of the suspension containing the test strains having 10^7 CFU (Colony Forming Unit) per 1 ml into the medium and then culturing the test strains at 37° C. for 20 hours."}, "[2]": {"test_system": "Citrobacter diversus 2046E", "conditions": "Citrobacter koseri, read-out: Minimum Inhibitory Concentration", "method": "as §1"}, "[3]": {"test_system": "Enterobacter cloacae IND + VE 1194E", "conditions": "read-out: Minimum Inhibitory Concentration", "method": "as §1"}, "Enterobacter cloacae P99": {"test_system": "Enterobacter cloacae P99", "conditions": "P99, 20 h, read-out: Minimum Inhibitory Concentration", "method": "as §1"}, "Escherichia coli 10536": {"test_system": "Escherichia coli 10536", "conditions": "Escherichia coli, 10536, 20 h, read-out: Minimum Inhibitory Concentration", "method": "as §1"}, "Escherichia coli 3190Y": {"test_system": "Escherichia coli 3190Y", "conditions": "read-out: Minimum Inhibitory Concentration", "method": "as §1"}, "Escherichia coli 851E": {"test_system": "Escherichia coli 851E", "conditions": "E. coli 851E, Muller-Hinton agar, 37° C., 20 hours", "method": "as §1"}, "[4]": {"test_system": "Escherichia coli TEM1 1193E", "conditions": "TEM11193E, 20 h, read-out: Minimum Inhibitory Concentration", "method": "as §1"}, "[5]": {"test_system": "Escherichia coli TEM3 3455E", "conditions": "TEM33455E, 20 h, read-out: Minimum Inhibitory Concentration", "method": "as §1"}, "[6]": {"test_system": "Escherichia coli TEM5 3739E", "conditions": "TEM53739E, 20 h, read-out: Minimum Inhibitory Concentration", "method": "as §1"}, "[7]": {"test_system": "Escherichia coli TEM7 3457E", "conditions": "TEM73457E, 20 h, read-out: Minimum Inhibitory Concentration", "method": "as §1"}, "[8]": {"test_system": "Escherichia coli TEM9 2639E", "conditions": "TEM92639E, 20 h, read-out: Minimum Inhibitory Concentration", "method": "as §1"}, "[9]": {"test_system": "Klebsiella aerogenes K1 + 1082E", "conditions": "20 h, read-out: Minimum Inhibitory Concentration", "method": "as §1"}, "[10]": {"test_system": "Klebsiella aerogenes SHV-1 1976E", "conditions": "SHV11976E", "method": "as §1"}, "Proteus vulgaris 6059A": {"test_system": "Proteus vulgaris 6059A", "conditions": "read-out: Minimum Inhibitory Concentration", "method": "as §1"}, "[11]": {"test_system": "Pseudomonas aeruginosa 10145", "conditions": "read-out: Minimum Inhibitory Concentration", "method": "as §1"}, "[12]": {"test_system": "Pseudomonas aeruginosa 1912E", "conditions": "read-out: Minimum Inhibitory Concentration", "method": "as §1"}, "[13]": {"test_system": "Pseudomonas aeruginosa 6065", "conditions": "read-out: Minimum Inhibitory Concentration", "method": "as §1"}, "[14]": {"test_system": "Salmonella typhimurium 14028A", "conditions": "Salmonella enterica, read-out: Minimum Inhibitory Concentration", "method": "as §1"}, "[15]": {"test_system": "Serratia marcescens 1826E", "conditions": "read-out: Minimum Inhibitory Concentration", "method": "as §1"}, "[16]": {"test_system": "Staphylococcus aureus 241", "conditions": "read-out: Minimum Inhibitory Concentration", "method": "as §1"}, "[17]": {"test_system": "Staphylococcus aureus 6538P", "conditions": "read-out: Minimum Inhibitory Concentration", "method": "as §1"}, "Staphylococcus aureus 77": {"test_system": "Staphylococcus aureus 77", "conditions": "read-out: Minimum Inhibitory Concentration", "method": "as §1"}, "[18]": {"test_system": "Staphylococcus aureus epidermidis 887E", "conditions": "read-out: Minimum Inhibitory Concentration", "method": "as §1"}, "[19]": {"test_system": "Staphylococcus aureus giorgio", "conditions": "read-out: Minimum Inhibitory Concentration", "method": "as §1"}, "[20]": {"test_system": "Streptococcus faecalis 29212A", "conditions": "Enterococcus faecalis, read-out: Minimum Inhibitory Concentration", "method": "as §1"}},
  "note": "Like-named read-outs stand apart in the source and are kept apart here.",
  "data": [
    {"smiles": "CC(C)(O/N=C(\\C(=O)N[C@@H]1C(=O)N2C(C(=O)[O-])=C(C[n+]3ccccc3)CS[C@H]12)c1csc(N)n1)C(=O)O", "note": "[CAZ, Ceftazidime, reference compound]", "values": [
      {"measurement": "MIC", "setting": "[1]; 15473A, 20 h", "result": 2, "unit": "µg/mL"},
      {"measurement": "MIC", "setting": "[2]; 2046E, 20 h", "result": 0.5, "unit": "µg/mL"},
      {"measurement": "MIC", "setting": "[3]; 20 h", "result": 128, "unit": "µg/mL"},
      {"measurement": "MIC", "setting": "Enterobacter cloacae P99", "result": 64, "unit": "µg/mL"},
      {"measurement": "MIC", "setting": "Escherichia coli 10536", "result": 0.13, "unit": "µg/mL"},
      {"measurement": "MIC", "setting": "Escherichia coli 3190Y; 3190Y, 20 h", "result": 0.063, "unit": "µg/mL"},
      {"measurement": "MIC", "setting": "Escherichia coli 851E", "result": 0.063, "unit": "µg/mL"},
      {"measurement": "MIC", "setting": "[4]", "result": 0.25, "unit": "µg/mL"},
      {"measurement": "MIC", "setting": "[5]", "result": 8, "unit": "µg/mL"},
      {"measurement": "MIC", "setting": "[6]", "result": 8, "unit": "µg/mL"},
      {"measurement": "MIC", "setting": "[7]", "result": 16, "unit": "µg/mL"},
      {"measurement": "MIC", "setting": "[8]", "result": "> 128", "unit": "µg/mL"},
      {"measurement": "MIC", "setting": "[9]", "result": 0.5, "unit": "µg/mL"},
      {"measurement": "MIC", "setting": "[10]; 20 h", "result": 0.25, "unit": "µg/mL"},
      {"measurement": "MIC", "setting": "Proteus vulgaris 6059A; 6059A, 20 h", "result": 0.063, "unit": "µg/mL"},
      {"measurement": "MIC", "setting": "[11]; Pseudomonas aeruginosa, 10145, 20 h", "result": 2, "unit": "µg/mL"},
      {"measurement": "MIC", "setting": "[12]; 1912E, 20 h", "result": 1, "unit": "µg/mL"},
      {"measurement": "MIC", "setting": "[13]; Pseudomonas aeruginosa, 6065, 20 h", "result": 16, "unit": "µg/mL"},
      {"measurement": "MIC", "setting": "[14]; TYPHIMURIUM, 20 h", "result": 0.25, "unit": "µg/mL"},
      {"measurement": "MIC", "setting": "[15]; 1826E, 20 h", "result": 0.25, "unit": "µg/mL"},
      {"measurement": "MIC", "setting": "[16]; Staphylococcus aureus, 241, 20 h", "result": "> 128", "unit": "µg/mL"},
      {"measurement": "MIC", "setting": "[17]; 6538P, 20 h", "result": 16, "unit": "µg/mL"},
      {"measurement": "MIC", "setting": "Staphylococcus aureus 77; Staphylococcus aureus, 77, 20 h", "result": 32, "unit": "µg/mL"},
      {"measurement": "MIC", "setting": "[18]; 20 h", "result": "> 128", "unit": "µg/mL"},
      {"measurement": "MIC", "setting": "[19]; 20 h", "result": 4, "unit": "µg/mL"},
      {"measurement": "MIC", "setting": "[20]; 29212A, 20 h", "result": "> 128", "unit": "µg/mL"}
    ]},
    {"smiles": "Nc1cc(N)[n+](C/C=C/C2=C(C(=O)[O-])N3C(=O)[C@@H](NC(=O)/C(=N\\O[C@@H](C(=O)O)c4ccc(O)c(O)c4)c4csc(N)n4)[C@H]3SC2)cn1", "note": "[Compound I-1b, 7-[(Z)-2-(2-aminothiazol-4-yl)-2-(α-carboxy-3,4-dihydroxybenzyloxyimino)acetamido]-3-[(E)-3-(4,6-diaminopyrimidinium-1-yl)-1-propen-1-yl]-3-cephem-4-carboxylate]", "values": [
      {"measurement": "MIC", "setting": "[1]; A. calcoaceticus 15473A, Muller-Hinton agar, 37° C., 20 hours", "result": 4, "unit": "µg/mL"},
      {"measurement": "MIC", "setting": "[2]; C. diversus 2046E, Muller-Hinton agar, 37° C., 20 hours", "result": 16, "unit": "µg/mL"},
      {"measurement": "MIC", "setting": "[3]; E. cloacae IND + VE 1194E, Muller-Hinton agar, 37° C., 20 hours", "result": 64, "unit": "µg/mL"},
      {"measurement": "MIC", "setting": "Enterobacter cloacae P99", "result": 128, "unit": "µg/mL"},
      {"measurement": "MIC", "setting": "Escherichia coli 10536", "result": 0.13, "unit": "µg/mL"},
      {"measurement": "MIC", "setting": "Escherichia coli 3190Y; E. coli 3190Y, Muller-Hinton agar, 37° C., 20 hours", "result": 0.13, "unit": "µg/mL"},
      {"measurement": "MIC", "setting": "Escherichia coli 851E", "result": 0.13, "unit": "µg/mL"},
      {"measurement": "MIC", "setting": "[4]", "result": 0.25, "unit": "µg/mL"},
      {"measurement": "MIC", "setting": "[5]", "result": 0.5, "unit": "µg/mL"},
      {"measurement": "MIC", "setting": "[6]", "result": 2, "unit": "µg/mL"},
      {"measurement": "MIC", "setting": "[7]", "result": 0.25, "unit": "µg/mL"},
      {"measurement": "MIC", "setting": "[8]", "result": 2, "unit": "µg/mL"},
      {"measurement": "MIC", "setting": "[9]", "result": 2, "unit": "µg/mL"},
      {"measurement": "MIC", "setting": "[10]; K. aerogenes SHV-1 1976E, Muller-Hinton agar, 37° C., 20 hours", "result": 1, "unit": "µg/mL"},
      {"measurement": "MIC", "setting": "Proteus vulgaris 6059A; P. vulgaris 6059A, Muller-Hinton agar, 37° C., 20 hours", "result": 0.5, "unit": "µg/mL"},
      {"measurement": "MIC", "setting": "[11]; Pseudomonas aeruginosa, P. aeruginosa 10145, Muller-Hinton agar, 37° C., 20 hours", "result": 32, "unit": "µg/mL"},
      {"measurement": "MIC", "setting": "[12]; P. aeruginosa 1912E, Muller-Hinton agar, 37° C., 20 hours", "result": 64, "unit": "µg/mL"},
      {"measurement": "MIC", "setting": "[13]; Pseudomonas aeruginosa, P. aeruginosa 6065, Muller-Hinton agar, 37° C., 20 hours", "result": 32, "unit": "µg/mL"},
      {"measurement": "MIC", "setting": "[14]; S. typhimurium 14028A, Muller-Hinton agar, 37° C., 20 hours", "result": 0.13, "unit": "µg/mL"},
      {"measurement": "MIC", "setting": "[15]; S. marcescens 1826E, Muller-Hinton agar, 37° C., 20 hours", "result": 2, "unit": "µg/mL"},
      {"measurement": "MIC", "setting": "[16]; Staphylococcus aureus, S. aureus 241, Muller-Hinton agar, 37° C., 20 hours", "result": 128, "unit": "µg/mL"},
      {"measurement": "MIC", "setting": "[17]; S. aureus 6538P, Muller-Hinton agar, 37° C., 20 hours", "result": 0.5, "unit": "µg/mL"},
      {"measurement": "MIC", "setting": "Staphylococcus aureus 77; Staphylococcus aureus, S. aureus 77, Muller-Hinton agar, 37° C., 20 hours", "result": 2, "unit": "µg/mL"},
      {"measurement": "MIC", "setting": "[18]; S. aureus epidermidis 887E, Muller-Hinton agar, 37° C., 20 hours", "result": 64, "unit": "µg/mL"},
      {"measurement": "MIC", "setting": "[19]; S. aureus giorgio, Muller-Hinton agar, 37° C., 20 hours", "result": 0.5, "unit": "µg/mL"},
      {"measurement": "MIC", "setting": "[20]; S. faecalis 29212A, Muller-Hinton agar, 37° C., 20 hours", "result": 8, "unit": "µg/mL"}
    ]}
  ]
}
